Literature values as cited in patent US10610500B2, “Chemosensory receptor ligand-based therapies” (Anji Pharma (US) LLC, priority 2011, dated 2020).

biological target: T1, sweet receptor (Homo sapiens, UniProt Q7RTX0+Q8TE23); settings: relative sweetness on a weight comparison basis to sucrose (=1.0); ranges: relative sweetness varied with the concentration of sucrose
T1 sequence (Q8TE23 20-839): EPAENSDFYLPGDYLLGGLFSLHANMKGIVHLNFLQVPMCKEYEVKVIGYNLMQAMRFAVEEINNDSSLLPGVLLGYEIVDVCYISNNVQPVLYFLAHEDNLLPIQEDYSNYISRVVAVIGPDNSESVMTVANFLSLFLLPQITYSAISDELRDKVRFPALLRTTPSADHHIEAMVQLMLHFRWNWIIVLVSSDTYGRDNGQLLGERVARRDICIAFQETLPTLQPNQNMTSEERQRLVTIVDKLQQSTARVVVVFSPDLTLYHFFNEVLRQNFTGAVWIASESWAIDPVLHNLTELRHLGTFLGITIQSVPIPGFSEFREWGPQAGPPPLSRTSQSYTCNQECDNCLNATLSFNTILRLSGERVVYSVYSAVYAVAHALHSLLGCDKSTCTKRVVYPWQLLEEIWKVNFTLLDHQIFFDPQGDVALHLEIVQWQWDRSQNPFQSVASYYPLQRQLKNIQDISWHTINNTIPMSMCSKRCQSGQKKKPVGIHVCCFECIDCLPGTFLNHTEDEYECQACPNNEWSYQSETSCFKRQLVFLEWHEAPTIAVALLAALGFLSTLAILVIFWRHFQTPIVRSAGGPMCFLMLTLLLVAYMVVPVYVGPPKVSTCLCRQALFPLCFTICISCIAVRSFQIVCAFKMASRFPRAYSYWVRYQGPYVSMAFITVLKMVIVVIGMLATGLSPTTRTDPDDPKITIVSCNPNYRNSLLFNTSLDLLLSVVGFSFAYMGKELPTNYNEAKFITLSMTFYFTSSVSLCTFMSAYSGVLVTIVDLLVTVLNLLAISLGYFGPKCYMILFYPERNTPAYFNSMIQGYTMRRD
T1 sequence (Q7RTX0 21-852): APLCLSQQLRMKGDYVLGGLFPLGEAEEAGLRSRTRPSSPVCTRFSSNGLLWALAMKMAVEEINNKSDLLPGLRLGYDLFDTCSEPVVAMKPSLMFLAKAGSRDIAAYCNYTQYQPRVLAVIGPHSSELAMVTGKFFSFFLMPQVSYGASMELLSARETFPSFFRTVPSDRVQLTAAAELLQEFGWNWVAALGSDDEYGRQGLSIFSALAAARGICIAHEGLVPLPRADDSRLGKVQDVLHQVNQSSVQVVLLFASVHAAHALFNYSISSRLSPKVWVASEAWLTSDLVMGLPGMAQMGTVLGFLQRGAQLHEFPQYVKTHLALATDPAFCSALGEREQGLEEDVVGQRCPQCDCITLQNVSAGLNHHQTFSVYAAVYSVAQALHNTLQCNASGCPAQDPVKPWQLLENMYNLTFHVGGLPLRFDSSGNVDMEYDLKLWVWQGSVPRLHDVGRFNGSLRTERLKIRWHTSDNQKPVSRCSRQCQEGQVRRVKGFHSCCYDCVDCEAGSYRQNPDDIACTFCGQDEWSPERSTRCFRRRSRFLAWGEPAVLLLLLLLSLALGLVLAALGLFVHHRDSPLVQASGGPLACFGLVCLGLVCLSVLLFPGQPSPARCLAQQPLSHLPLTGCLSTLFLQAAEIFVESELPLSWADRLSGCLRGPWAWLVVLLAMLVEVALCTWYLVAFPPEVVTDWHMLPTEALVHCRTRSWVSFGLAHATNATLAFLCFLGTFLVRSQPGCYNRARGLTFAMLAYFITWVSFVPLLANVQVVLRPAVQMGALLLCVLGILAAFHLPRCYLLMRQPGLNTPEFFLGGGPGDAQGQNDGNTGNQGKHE

Going from COc1c(O)cc2c(c1O)C(=O)[C@H](OC(C)=O)[C@@H](c1ccc(O)c(O)c1)O2 [(2R,3R)-2,3-Dihydro-5,7,3',4'-tetrahydroxy-6-methoxy-3-O-acetylflavonol] to COc1c(O)cc2c(c1O)C(=O)[C@H](O)[C@@H](c1ccc(O)c(O)c1)O2 [(2R,3R)-2,3-Dihydro-5,7,3',4'-tetrahydroxy-6-methoxyflavonol], the Sweetness/potency falls from 25 to 15.

First: COc1c(O)cc2c(c1O)C(=O)[C@H](OC(C)=O)[C@@H](c1ccc(O)cc1)O2 [(2R,3R)-2,3-Dihydro-5,7,4'-trihydroxy-6-methoxy-3-O-acetylflavonol]
Second: COc1ccc(C2Oc3cc(O)cc(O)c3C(=O)C2OC(C)=O)cc1O (stereo not shown) [Dihydroquercetin 3-O-acetate 4'-methyl ether]
The Sweetness/potency of the first is lower: 20 for the first, 400 for the second.

Compared with CC(=O)O[C@H]1C(=O)c2c(O)cc(O)cc2O[C@@H]1c1ccc(O)c(O)c1 [(2R,3R)-Dihydroquercetin 3-O-acetate], COc1ccc([C@H]2Cc3cccc(O)c3C(=O)O2)cc1O [Phyllodulcin] is higher in Sweetness/potency: 80 for the first, 400 for the second.

First: CC1=CC[C@@H]([C@@H](C)[C@H]2CC[C@@]3(C)[C@@H]4CC[C@H]5[C@](C)(C(=O)O)[C@@H](O[C@@H]6O[C@H](CO)[C@@H](O)[C@H](O)[C@H]6O)CC[C@@]56C[C@@]46CC[C@]23C)OC1=O [Abrusoside A]
Second: CC1=CC[C@@H]([C@@H](C)[C@H]2CC[C@@]3(C)[C@@H]4CC[C@H]5[C@](C)(C(=O)O)[C@@H](O[C@@H]6O[C@H](CO)[C@@H](O)[C@H](O)[C@H]6O[C@@H]6O[C@H](CO)[C@@H](O)[C@H](O)[C@H]6O)CC[C@@]56C[C@@]46CC[C@]23C)OC1=O [Abrusoside C]
The Sweetness/potency of the first is lower: 30 for the first, 50 for the second.

Going from COC(=O)[C@H]1O[C@@H](O[C@H]2[C@H](O[C@H]3CC[C@]45C[C@]46CC[C@]4(C)[C@@H]([C@H](C)[C@@H]7CC=C(C)C(=O)O7)CC[C@@]4(C)[C@@H]6CC[C@H]5[C@]3(C)C(=O)O)O[C@H](CO)[C@@H](O)[C@@H]2O)[C@H](O)[C@@H](O)[C@@H]1O [Abrusoside B] to CC1=CC[C@@H]([C@@H](C)[C@H]2CC[C@@]3(C)[C@@H]4CC[C@H]5[C@](C)(C(=O)O)[C@@H](O[C@@H]6O[C@H](CO)[C@@H](O)[C@H](O)[C@H]6O[C@@H]6O[C@H](C(=O)O)[C@@H](O)[C@H](O)[C@H]6O)CC[C@@]56C[C@@]46CC[C@]23C)OC1=O [Abrusoside D], the Sweetness/potency falls from 100 to 75.

First: CC1(C)C[C@H]2C3=CC[C@@H]4[C@@]5(C)CC[C@H](O[C@@H]6O[C@H](CO[C@@H]7OC[C@H](O)[C@H](O)[C@H]7O[C@@H]7OC[C@@H](O)[C@H](O)[C@H]7O)[C@@H](O)[C@H](O)[C@H]6O)C(C)(C)[C@@H]5CC[C@@]4(C)[C@]3(C)C[C@@H](O)[C@@]23C[C@@H]1OC3=O [Albiziasaponin A]
Second: CC1(C)[C@@H](O[C@H]2O[C@H](C(=O)O)[C@@H](O)[C@H](O)[C@H]2O[C@@H]2OC[C@H](O)[C@H](O)[C@H]2O)CC[C@]2(C)[C@H]3C(=O)C=C4[C@@H]5C[C@@](C)(C(=O)O)CC[C@]5(C)CC[C@@]4(C)[C@]3(C)CC[C@@H]12 [Araboglycyrrhizin]
The Sweetness/potency of the first is lower: 5 for the first, 150 for the second.

Going from CC1(C(=O)O)CCC2(C)CCC3(C)C(=CC(=O)C4C5(C)CCC(OC6OC(C(=O)O)C(O)C(O)C6OC6OCC(O)(CO)C6O)C(C)(C)C5CCC43C)C2C1 (stereo not shown) [Apioglycyrrhizin] to CC1(C(=O)O)C=C2C3CCC4C5(CO)CCC(OC6OC(C(=O)O)C(O)C(O)C6OC6OC(C(=O)O)C(O)C(O)C6O)C(C)(C)C5CCC4(C)C3(C)CCC2(C)CC1 (stereo not shown) [Periandrin III], the Sweetness/potency falls from 300 to 92.

Compared with C/C(=C\CC[C@@H](C)[C@H]1CC[C@@]2(C)[C@@H]3CC=C4[C@@H](CC[C@H](O[C@@H]5O[C@H](CO)[C@@H](O)[C@H](O)[C@H]5O)C4(C)C)[C@]3(C)[C@H](O)C[C@]12C)CO[C@@H]1O[C@H](CO[C@@H]2O[C@H](CO)[C@@H](O)[C@H](O)[C@H]2O)[C@@H](O)[C@H](O)[C@H]1O [Carnosifloside VI], C=C1C[C@@]23CC[C@H]4[C@@](C)(CCC[C@@]4(C)C(=O)O[C@@H]4O[C@H](CO)[C@@H](O)[C@H](O)[C@H]4O)[C@@H]2CC[C@]1(O[C@@H]1O[C@H](CO)[C@@H](O)[C@H](O)[C@H]1O[C@@H]1O[C@@H](C)[C@H](O)[C@@H](O)[C@H]1O)C3 [Dulcoside A] is lower in Sweetness/potency: 77 for the first, 30 for the second.

First: C/C(=C\CO)CCC1=C(C=O)CC(OC2OCC(O)C(O)C2O)C2C(C)(CO)CCCC12C (stereo not shown) [Gaudichaudioside A]
Second: C=C(C)C1CCC2(C)C(CC(OC3OCC(O)C(O)C3O)C3C(C(C)(O)C/C=C/C(C)(C)O)CCC32C)C1(C)CCC(=O)O (stereo not shown) [Pterocaryoside B]
The Sweetness/potency of the first is lower: 55 for the first, 100 for the second.

Going from Oc1cc2c(cc1O)[C@@H]1c3ccc(O)c(O)c3OC[C@]1(O)C2 [Hematoxylin] to C[C@@H]1O[C@@H](O[C@H]2[C@H](Oc3cc(O)c(C(=O)CCc4ccc(O)cc4)c(O)c3)O[C@H](CO)[C@@H](O)[C@@H]2O)[C@H](O)[C@H](O)[C@H]1O [Naringin dihydrochalcone], the Sweetness/potency rises from 120 to 300.

Going from C[C@@H]1O[C@@H](O[C@H]2O[C@@H]([C@@H](C)C3CC[C@@H]4[C@H]5CC(=O)[C@@H]6C[C@H](O[C@@H]7O[C@H](CO)[C@@H](O)[C@H](O)[C@H]7O[C@@H]7O[C@@H](C)[C@H](O)[C@@H](O)[C@H]7O)CC[C@]6(C)[C@@H]5CC[C@]34C)CC[C@@H]2C)[C@H](O)[C@H](O)[C@H]1O (stereo partly shown) [Osladin] to CC1(C)[C@@H](O[C@@H]2O[C@H](C(=O)O)[C@@H](O)[C@H](O)[C@H]2O[C@@H]2O[C@H](C(=O)O)[C@@H](O)[C@H](O)[C@H]2O)CC[C@]2(C=O)[C@H]3CC[C@@H]4C5=C[C@@](C)(C(=O)O)CC[C@]5(C)CC[C@@]4(C)[C@]3(C)CC[C@@H]12 [Periandrin I], the Sweetness/potency falls from 500 to 90.

Going from CC1(C(=O)O)C=C2C3CCC4C5(C=O)CCC(OC6OC(C(=O)O)C(O)C(O)C6OC6OCC(O)C(O)C6O)C(C)(C)C5CCC4(C)C3(C)CCC2(C)CC1 (stereo not shown) [Periandrin V] to Oc1ccc([C@H]2Oc3c(c(O)cc4c3[C@H]3c5c(O)cc(O)cc5O[C@@](c5ccc(O)cc5)(O4)[C@@H]3O)[C@H](c3c(O)cc(O)c4c3O[C@H](c3ccc(O)cc3)[C@@H](O)C4)[C@H]2O)cc1 [Selligueain A], the Sweetness/potency falls from 220 to 35.

For C=C(C)[C@@H]1CC=C(/C=N/O)CC1 [Perillartine], the Sweetness/potency is listed as 370.

For CC(C)=CCC[C@](C)(O)[C@@H]1CCC(C)=CC1=O [(+)-Hernandulcin], the Sweetness/potency is listed as 1,500.
In the case of C/C(=C\CC/C(C)=C/CO[C@@H]1O[C@H](CO)[C@@H](O)[C@H](O[C@@H]2O[C@@H](C)[C@H](O)[C@@H](O)[C@H]2O)[C@H]1O[C@@H]1O[C@@H](C)[C@H](O)[C@@H](O)[C@H]1O)CC/C=C(\C)CO[C@@H]1O[C@H](CO)[C@@H](O)[C@H](O[C@@H]2O[C@@H](C)[C@H](O)[C@@H](O)[C@H]2O)[C@H]1O[C@@H]1O[C@@H](C)[C@H](O)[C@@H](O)[C@H]1O [Mukurozioside IIb], the Sweetness/potency is given as “ca. 1”.
For COc1ccc(CCC(=O)c2c(O)cc(O[C@@H]3O[C@H](CO)[C@@H](O)[C@H](O)[C@H]3O[C@@H]3O[C@@H](C)[C@H](O)[C@@H](O)[C@H]3O)cc2O)cc1O [Neohesperidin dihydrochalcone], the Sweetness/potency is listed as 1,000.
